Source: patent US20250057951A1, “DISCERNIBLE CELL SURFACE PROTEIN VARIANTS OF CD117 FOR USE IN CELL THERAPY” (UNIVERSITÄT BASEL, priority 2021, published 2025)
“Also recorded” adds a separate entry of the source. Each block holds one molecule with its values, some of them ahead of it.

Columns and labels:
antibody Refmab #1 [1] = assay: Octet screen: binding of CD117 D1-2-3 variants to captured Refmab #1; details: nm shift at end of association, top analyte concentration (500 nM)
Procedure: (§1) A more sophisticated analysis of binding to the elected variants was performed with antibody Refmab #1. Binding of Refmab #1 to wt and variants (analyte) was measured in an Octet system RED96e or R8 at 25° C. with shaking at 1,000 rpm using 1× kinetic buffer (Sartorius, PN: 18-1105). First, the elected variants were screened for their ability to bind Refmab #1 using three different concentrations of analytes. Antibody Refmab #1 was captured by Anti-Human Fc capture biosensor (AHC) (Sartorius, PN: 18-5060) for 300 s at 0.5 to 1 μg/mL. As an analyte, human CD117 wt and variants, containing only domains 1, 2 and 3 (CD117 D1-2-3), was titrated at 500 nM, 50 nM and 5 nM. Association and dissociation of the analyte to Refmab #1 was monitored for 300 s and 900 s, respectively. Reference subtraction was performed against buffer only wells. AHC tips were regenerated using 10 mM Gly-HCl pH 1.7. Data were analyzed using the Octet Data Analysis software HT 12.0. Data were fitted (when possible) to a 1:1 binding model. Kinetic rates ka and […] globally fitted. Binding level of the elected variants were compared to wild type and are shown as percent in FIG. 7. For this qualitative analysis, the binding level of the top analyte concentration at end of the association step was used.

antibody Refmab #1 [2] = assay: Octet titration, steady state KD of CD117 D1-2-3 variants to Refmab #1; assay type: binding; details: for Kd: 7 concentrations 2000-5 nM, steady state, two individual experiments
Refmab #1, sequence (as listed by the source, one chain of several): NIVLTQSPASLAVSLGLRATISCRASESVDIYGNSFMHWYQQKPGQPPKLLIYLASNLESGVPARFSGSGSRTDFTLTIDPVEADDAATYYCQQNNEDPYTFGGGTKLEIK
Procedure: To further characterize binding of Refmab #1 to CD117 D1-2-3 variants E73K, E73L, E73R, E73Y, D121H, D121K, S123K and S123F, the analytes were titrated at 7 different concentrations (from 2000 nM to 5 nM). Antibody Refmab #1 was captured by AHC biosensors for 300 s at 0.5 to 1 μg/mL. Association and dissociation to Refmab #1 was extended to 600 s and 1000 s, respectively. Steady state analysis was performed.

TF-1 cells = assay: SCF-dependent proliferation, SCF titration on TF-1 cells with CD117 variants (CellTiter-Glo); assay type: cell-based, human; details: for EC50 Average: average of two experiments; for EC50 Experiment #1 / EC50 Experiment #2: titration of SCF, 3 days, TF-1 cells with the CD117 variant
Procedure: In another experiment, SCF-dependent proliferation of variants E73K, E73Y, D121K, S123F and S123K was compared against wildtype CD117. TF-1 cells were seeded at a cell concentration of 150 000 cells/ml in sterile, white cell culture treated plates with transparent bottom in RPMI+GlutaMax+10% FCS. Cells were treated with a titration of SCF. After 3 days of incubation a CellTiter-Glo 2.0 assay (Promega) was performed, luminescence was read in a luminometer (Envision plate reader) and EC50's was determined. Two different experiments with triplicates in each experiment were performed.

Refmab #1 = Refmab #1 titration on engineered TF-1 cells (flow cytometry); assay type: binding; details: 5-0.00015 μg/mL antibody; 4° C.
Procedure: Binding of Refmab #1 was assessed in a flow cytometry assay. TF-1 cells were seeded at a cell concentration of 1,000,000 cells/ml in FACS Buffer (PBS+2% FCS+1 mM EDTA). After a Fc blocking using 1:20 diluted TruStain (BioLegend, #422302) in FACS buffer for 15 minutes at 4° C., cells were washed twice with FACS buffer. Subsequently, a SR-1 titration was added to the cells using 5-0.00015 μg/mL antibody for 30 minutes at 4° C. on a plate shaker. Cells were washed twice with FACS buffer and a secondary labelled antibody (IgG (H+L) Cross-Adsorbed Goat anti-Human, Alexa Fluor® 488, Invitrogen, A11013) was added to the cells for 30 minutes at 4° C. on a plate shaker. Cells were washed twice with FACS buffer, before adding 1:100 diluted solution of 7AAD staining (cell viability) in FACS buffer for a couple of minutes and analyzing the cells using the Novocyte Quanteon (Agilent).

Refmab #2 = assay: Octet: binding of CD117 variants to Refmab #2; details: qualitative Octet analysis
Procedure: as §1
A similar experiment to that in Example 7 was performed, but utilizing Refmab's #2 and #3.

Biotinylated Avitag-hSCF = target: T1, Biotinylated Avitag-hSCF (human, UniProt P21583 26-190, limits assumed, biotinylated Avitag); assay: BLI (Octet), steady state: biotinylated SCF on streptavidin biosensor, CD117 D1-2-3 variant as analyte; KD relative to WT
T1 construct: Bought reagent; also called hSCF (Acros Biosystems SCF-H82E1)
T1 sequence (P21583 26-190 limits assumed): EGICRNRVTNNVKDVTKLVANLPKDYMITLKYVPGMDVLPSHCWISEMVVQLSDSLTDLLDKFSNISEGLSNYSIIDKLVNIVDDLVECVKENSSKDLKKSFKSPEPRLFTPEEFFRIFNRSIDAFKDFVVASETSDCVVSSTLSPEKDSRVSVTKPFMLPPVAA
Procedure: Association was monitored for 300 s and dissociation for 600 s. […] Reference subtraction was performed against buffer only wells. Biosensors were not regenerated and a new set of SA biosensors was used for each analyte. Data were analyzed using the Octet Data Analysis software HT 12.0. Steady state data analysis was performed due to the fast on/off nature of the interaction.

SCF = target: T2, SCF (Homo sapiens, UniProt P21583); assay: Octet: binding of CD117 D1-2-3 variants to SCF; details: CD117 D1-2-3 constructs; steady state
T2 construct: purchased Acros Biosystems SCF-H82E1
T2 sequence (P21583 26-273): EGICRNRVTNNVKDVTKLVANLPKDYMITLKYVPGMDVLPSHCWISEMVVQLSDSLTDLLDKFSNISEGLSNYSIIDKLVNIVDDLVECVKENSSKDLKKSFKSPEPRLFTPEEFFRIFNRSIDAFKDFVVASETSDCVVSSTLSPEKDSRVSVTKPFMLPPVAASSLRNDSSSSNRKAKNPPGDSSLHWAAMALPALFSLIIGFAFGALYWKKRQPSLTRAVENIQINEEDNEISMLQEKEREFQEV
Procedure: SCF binding is one function of CD117. SCF binding is important for the transmission of functional signals by CD117. Binding of the elected variants to SCF was measured on an Octet system RED96e or R8 at 25° C. with shaking at 1000 rpm using 1× Kinetic Buffer (Sartorius, PN: 18-1105). […] Domain 1, 2, 3 comprise the binding site for SCF. Domains 4 and 5 were used as a negative, non-binding control.
CD117 D1-2-3 wt and variants thereof are titrated with different concentrations from 1000 to 5 nM. Association was monitored for 300 s and dissociation for 600 s. Binding to human CD117 domain 4 and 5 (CD117 D4-5) was performed under the same conditions as non-binding control. Reference subtraction was performed against buffer only wells. Biosensors were not regenerated and a new set of SA biosensors was used for each analyte. Data were analyzed using the Octet Data Analysis software HT 12.0. Steady state data analysis was performed due to the fast on/off nature of the interaction.

human wild-type CD117 = human wild-type CD117 (human, UniProt P10721 26-976); assay: cell-based or functional assay
CD117 = assay: Blocking of SCF-induced CD117 phosphorylation (Tyr719 ELISA), wild type TF-1 cells; assay type: cell-based, human; details: 0.5 ug/mL antibody or 500 nM avapritinib; 100 ng/ml SCF 5 minutes
Procedure: (§2) SCF-dependent phosphorylation is another function of CD117. SCF-dependent phosphorylation was measured using TF-1 cells expressing CD117 (as shown in previous experiments). TF-1 cells were seeded at a concentration of 1 million cells/ml in 1 ml of Medium (RPMI1640 supplemented with GlutaMAX+10% heat inactivated FBS) in a 6-well plate. Cells were treated with 0.5 ug/mL antibody or 500 nM avapratinib. Cells were then treated with 100 ng/ml recombinant human SCF (1 mg/ml PeproGMP® Recombinant Human SCF) for 5 minutes, before cell collection. Cells were washed with ice-cold PBS, before resuspending cells in 250 μL Lysis Buffer (Lysis buffer from Signaling containing Protease Inhibitor and Phosphatase Inhibitor). Cells were flash frozen in liquid nitrogen and thawed at 37° C. twice, before freezing them at −80° C. until further usage. Undiluted samples were thawed and processed according to the manufacturers protocol for the PathScan® Phospho-c-Kit (Tyr719) Sandwich ELISA Kit (Cell Signaling). Absorbance (OD_450 nm) was assessed using the Envision (Perkin Elmer).
(§3) TF-1 cells (wild type, and variants E73K, E73Y, D121K, S123F and S123K of CD117) were seeded at a concentration of 1 million cells/mL in 2 ml of Medium (RPMI1640 supplemented with GlutaMAX+10% heat inactivated FBS) in a 6-well plate. Cells were pre-treated with 0.5 μg/ml of antibodies Refmab #1-Ernie or Refmab #1-Bert for 30 minutes, before adding 100 ng/ml recombinant human SCF (1 mg/mL PeproGMP® Recombinant Human SCF) for 5 minutes. Cells were collected, washed once with ice-cold PBS and resuspended in 500 μL Lysis Buffer (Lysis buffer from Signaling containing Protease Inhibitor and Phosphatase Inhibitor). Cells were then flash frozen in liquid nitrogen and thawed at 37° C. twice, before freezing them at −80° C. until further usage. Undiluted samples were thawed and processed according to the manufacturers protocol for the PathScan Phospho-c-Kit (Tyr719) Sandwich ELISA Kit (Cell Signaling) or the Human c-Kit (CD117) ELISA Kit (Abcam). Absorbance (OD_450 nm) was assessed using the Envision (Perkin Elmer).

variants of CD117 = assay: Blocking of SCF-induced CD117 phosphorylation (Tyr719 ELISA), TF-1 cells with CD117 variants; assay type: cell-based, human; details: 0.5 μg/ml antibody 30 minutes; 100 ng/ml SCF 5 minutes; same for E73K, E73Y, S123F (data not shown)
Procedure: as §2, §3

antibody Refmab #1, sequence (as listed by the source, one chain of several): as the sequence (as listed by the source, one chain of several) above

binding to Refmab #1 compared to wild type (antibody Refmab #1 [1]): particular strong decrease in binding
Kd (antibody Refmab #1 [2]): 691 nM
change of KD compared to wild type CD117 (antibody Refmab #1 [2]; KD variant vs wild type): around 700 fold
Molecule: E73Y: variant of human CD117 with substitution E73Y
EC50 Average (TF-1 cells): 4.01 ± 0.37 ng/mL
EC50 Experiment #1 (TF-1 cells): 4.37 ng/mL
EC50 Experiment #2 (TF-1 cells): 3.64 ng/mL
Binding of Refmab #1 to TF-1 cells expressing the CD117 variant (Refmab #1): completely abolished

Kd (antibody Refmab #1 [2]): 1 nM
Molecule: wild type CD117: wild type human CD117 (SEQ ID No. 1); recombinant D1-2-3 construct or expressed in TF-1 cells [reference compound]
EC50 Average (TF-1 cells): 4.18 ± 0.04 ng/mL
EC50 Experiment #1 (TF-1 cells): 4.14 ng/mL
EC50 Experiment #2 (TF-1 cells): 4.22 ng/mL
Binding of Refmab #1 to TF-1 cells expressing the CD117 variant (Refmab #1): bound

binding to Refmab #1 compared to wild type (antibody Refmab #1 [1]): particular strong decrease in binding
binding to Refmab #2 compared to wild type CD117 (Refmab #2): strong decrease in binding
binding result (Biotinylated Avitag-hSCF): binds
B1: R122H (receptor)
extracellular domains 1, 2 and 3: QPSVSPGEPSPPSIHPGKSDLIVRVGDEIRLLCTDPGFVKWTFEILDETNENKQNEWITEKAEATNTGKYTCTNKHGLSNSIYVFVRDPAKLFLVDHSLYGKEDNDTLVRCPLTDPEVTNYSLKGCQGKPLPKDLRFIPDPKAGIMIKSVKRAYHRLCLHCSVDQEGKSVLSEKFILKVRPAFKAVPVVSVSKASYLLREGEEFTVTCTIKDVSSSVYSTWKRENSQTKLQEKYNSWHHGDFNYERQATLTISSARVNDSGVFMCYANNTFGSANVTTTLEVVD
notes: not in the list MOLECULES; also called human CD117 D1-2-3 variant R122H

binding to Refmab #2 compared to wild type CD117 (Refmab #2): strong decrease in binding
B2: S239H: variant of human CD117 with substitution S239H (protein)
chain: QPSVSPGEPSPPSIHPGKSDLIVRVGDEIRLLCTDPGFVKWTFEILDETNENKQNEWITEKAEATNTGKYTCTNKHGLSNSIYVFVRDPAKLFLVDRSLYGKEDNDTLVRCPLTDPEVTNYSLKGCQGKPLPKDLRFIPDPKAGIMIKSVKRAYHRLCLHCSVDQEGKSVLSEKFILKVRPAFKAVPVVSVSKASYLLREGEEFTVTCTIKDVHSSVYSTWKRENSQTKLQEKYNSWHHGDFNYERQATLTISSARVNDSGVFMCYANNTFGSANVTTTLEVVDKG
KD increase of SCF binding compared to wild type CD117 (SCF): less than three-fold; also recorded: less than four-fold

binding to Refmab #2 compared to wild type CD117 (Refmab #2): strong decrease in binding
B3: S239K: variant of human CD117 with substitution S239K (protein)
chain: QPSVSPGEPSPPSIHPGKSDLIVRVGDEIRLLCTDPGFVKWTFEILDETNENKQNEWITEKAEATNTGKYTCTNKHGLSNSIYVFVRDPAKLFLVDRSLYGKEDNDTLVRCPLTDPEVTNYSLKGCQGKPLPKDLRFIPDPKAGIMIKSVKRAYHRLCLHCSVDQEGKSVLSEKFILKVRPAFKAVPVVSVSKASYLLREGEEFTVTCTIKDVKSSVYSTWKRENSQTKLQEKYNSWHHGDFNYERQATLTISSARVNDSGVFMCYANNTFGSANVTTTLEVVDKG

IC50 in a SCF-dependent proliferation assay on HSPC's (human wild-type CD117): 0.00521 µg/mL
IC50 in a SCF-dependent proliferation assay on TF-1 cells (human wild-type CD117): 0.0176 µg/mL
B4: Refmab #1-Ernie (antibody, V domains shown)
VH: QVQLQQPGAELVKPGASVKMSCKASGYTFTSYNMHWVKQTPGQGLEWIGVIYSGNGDTSYNQKFKGKATLTADKSSSTAYMQINSLTSEDSAVYYCARERDTRFGNWGQGTLVTVSA
VL: EIVLTQSPSSLSASVGDRVTITCRASESVDIYGESFMHWYQQKPGKAPKLLIYLASNLESGVPSRFSGSGSGTDFTLTISSLQPEDFATYYCQQNNEEPYTFGQGTKLEIKR

IC50 in a SCF-dependent proliferation assay on HSPC's (human wild-type CD117): 0.0313 µg/mL
IC50 in a SCF-dependent proliferation assay on TF-1 cells (human wild-type CD117): 0.0441 µg/mL
B5: Refmab #1-Bert (antibody, V domains shown)
VH: QVQLQQPGAELVKPGASVKMSCKASGYTFTSYNMHWVKQTPGQGLEWIGVIYSGNGDTSYNQKFKGKATLTADKSSSTAYMQINSLTSEDSAVYYCARERDTRFGNWGQGTLVTVSA
VL: EIVLTQSPSSLSASVGDRVTITCRASESVDIYGESFMHWYQQKPGKAPKLLIYLASNLESGVPSRFSGSGSGTDFTLTISSLQPEDFATYYCQQNKEEPYTFGQGTKLEIKR

B6: Refmab #1-Ernie: improved version of Refmab #1, VH SEQ ID 15, VL SEQ ID 62 (antibody, V domains shown)
VH: QVQLQQPGAELVKPGASVKMSCKASGYTFTSYNMHWVKQTPGQGLEWIGVIYSGNGDTSYNQKFKGKATLTADKSSSTAYMQINSLTSEDSAVYYCARERDTRFGNWGQGTLVTVSA
VL: EIVLTQSPSSLSASVGDRVTITCRASESVDIYGESFMHWYQQKPGKAPKLLIYLASNLESGVPSRFSGSGSGTDFTLTISSLQPEDFATYYCQQNNEEPYTFGQGTKLEIKRTV
modifications: Refmab #1 VH
blocking of SCF-induced phosphorylation, wild type cells (CD117): blocked
blocking of SCF-dependent CD117 phosphorylation, D121K and S123K variants (variants of CD117): unaffected
